We go through eleven compounds from ChEMBL document CHEMBL1201862, “PubChem BioAssay data set” (2004).

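How tested: cells in 96-well plates exposed to compound for 48 hours at five concentrations. GI50 marks 50% less growth.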 Activity calls are given as the source filed them. Rule as the data show it: active = GI50 up to about 1.1 µM and inactive = higher.

Some test systems named below: SK-MEL-5; MDA-MB-231; NCI-H522; CAKI-1; HCT-15; M14; SK-MEL-28; OVCAR-8; A549; HT-29; OVCAR-4; PC-3; OVCAR-3; U-251; HOP-92; SN12C; MCF7; SF-295; SW-620; RXF 393.
What all share (assay): NCI anticancer screen, dose series, 48 h

For the compound `CC(=O)SC(C[N+](=O)[O-])c1ccccc1` (stereo unspecified), the GI50 in the test on SK-MEL-5 was 2.68 µM (inactive); in the test with MDA-MB-231 it was 10.8 µM (inactive); in the test with NCI-H522, 16.4 µM (inactive); in the test with CAKI-1, 14 µM (inactive); in the test with HCT-15, 2.21 µM; with M14, 3.84 µM (inactive). Moreover, the GI50 in the test with SK-MEL-28 is 5.55 µM (inactive); in the test on OVCAR-8, 11.8 µM (inactive); in the test on A549, 3.82 µM (inactive); in the test on HT-29 it was 2.06 µM (inactive); with OVCAR-4, 1.76 µM (inactive); in the test with PC-3 it was 10.7 µM (inactive). The GI50 with OVCAR-3 was 5.37 µM (inactive); with U-251, 3.79 µM (inactive); in the test on HOP-92, 12.6 µM (inactive); with SN12C it was 11.1 µM (inactive); in the test on MCF7, 1.74 µM (inactive); in the test on SF-295, 6.15 µM (inactive). For the same compound, the GI50 is 2.18 µM (inactive) in the test on SW-620 and 2.1 µM (inactive) with RXF 393.

Turning to `CCOC(=O)c1c(SCCN2CCCCC2)n(-c2ccccc2)c(=S)n(-c2ccccc2)c1=O`, the GI50 in the test with SK-MEL-5 is 15.6 µM (inactive); in the test on MDA-MB-231 it was 21.2 µM (inactive); with NCI-H522, 16.7 µM (inactive); in the test with HCT-15 it was 4.29 µM; with M14, 28.6 µM (inactive); with SK-MEL-28 it was 8.85 µM (inactive). The GI50 is 22.9 µM (inactive) with OVCAR-8; > 54 µM (inactive) with A549; 15.3 µM (inactive) in the test on HT-29; 17.6 µM (inactive) with OVCAR-4; 14.6 µM (inactive) in the test on PC-3; 9.57 µM (inactive) in the test on OVCAR-3. In addition, the GI50 in the test on U-251 was 28.6 µM (inactive); in the test with HOP-92 it was 16.3 µM (inactive); in the test with SN12C, 19.2 µM (inactive); in the test on MCF7, 5.85 µM (inactive); in the test with SF-295 it was > 100 µM (inactive); with SW-620 it was 3.79 µM (inactive). Further, the GI50 in the test with RXF 393 is 13 µM (inactive).

As to `COC1OC2COC1(OCc1ccccc1)C1OC(C)(C)OC21` (stereo unspecified), the GI50 was > 100 µM (inactive) in the test with SK-MEL-5; > 100 µM (inactive) in the test on MDA-MB-231; > 100 µM (inactive) in the test with NCI-H522; > 100 µM (inactive) in the test on CAKI-1; over 100 µM with HCT-15; > 100 µM (inactive) with M14. In addition, the GI50 with SK-MEL-28, in the test with OVCAR-8, in the test on A549, in the test with HT-29, with OVCAR-4 and with PC-3 was > 100 µM (inactive) each time. The GI50 in the test on OVCAR-3, in the test on U-251, in the test with SN12C, in the test with MCF7, in the test with SF-295 and in the test with SW-620 was > 100 µM (inactive) throughout. Further, the GI50 in the test on RXF 393 is > 100 µM (inactive).

Take `COC(=O)c1cc(C#Cc2cc(OC)ccc2OC)ccc1OC`: the GI50 with SK-MEL-5 was 24.4 µM (inactive); in the test on MDA-MB-231, > 100 µM (inactive); in the test with NCI-H522 it was 37.8 µM (inactive); with CAKI-1, 60 µM (inactive); in the test on HCT-15 it was 40.3 µM; with M14, 34.8 µM (inactive). Besides, the GI50 was > 100 µM (inactive) in the test on SK-MEL-28; 37.1 µM (inactive) in the test with OVCAR-8; 34.8 µM (inactive) with A549; 38.5 µM (inactive) in the test on HT-29; 46.7 µM (inactive) in the test with OVCAR-4; 40.7 µM (inactive) in the test on PC-3. Besides, the GI50 is 95.1 µM (inactive) in the test with U-251; 22.9 µM (inactive) in the test with HOP-92; 36.5 µM (inactive) in the test with MCF7; < 0.01 µM (active) with SF-295; > 100 µM (inactive) in the test with SW-620; 21.3 µM (inactive) in the test on RXF 393.

Consider `O=C1c2ccccc2-c2nc(-c3cccc([N+](=O)[O-])c3)nnc21`, for which the GI50 with SK-MEL-5 was 2.69 µM (inactive); in the test on MDA-MB-231 it was 16.6 µM (inactive); with NCI-H522, 26.5 µM (inactive); in the test with CAKI-1, 4.24 µM (inactive); in the test with HCT-15, 15.7 µM; with M14 it was 23 µM (inactive). Also, the GI50 with OVCAR-8 is 11.4 µM (inactive); with A549, 4.62 µM (inactive); with HT-29, 1.82 µM (inactive); with OVCAR-4, 15.4 µM (inactive); in the test with PC-3 it was 40.2 µM (inactive); in the test with U-251, 4.5 µM (inactive). The GI50 is > 100 µM (inactive) with HOP-92; 21.4 µM (inactive) with SN12C; 11.4 µM (inactive) in the test with MCF7; 1.56 µM (inactive) in the test on SF-295; 15.8 µM (inactive) in the test on SW-620; 24.3 µM (inactive) in the test on RXF 393.

For the compound `O=C1C=C(c2ccccc2)O/C1=C\C(=O)c1ccc(Cl)cc1`, the GI50 in the test with SK-MEL-5 was 21.5 µM (inactive); with MDA-MB-231, 18.1 µM (inactive); with NCI-H522 it was 20.7 µM (inactive); in the test with CAKI-1, 18.1 µM (inactive); in the test with HCT-15, 17.5 µM; in the test with M14, 19.6 µM (inactive). In addition, the GI50 is 19.9 µM (inactive) in the test with SK-MEL-28; 22.6 µM (inactive) with OVCAR-8; 3.58 µM (inactive) in the test with HT-29; 21.9 µM (inactive) with OVCAR-4; 16.7 µM (inactive) in the test on PC-3; 22.1 µM (inactive) in the test with OVCAR-3. The GI50 with U-251 is 16.3 µM (inactive); in the test with HOP-92, 19.2 µM (inactive); with SN12C it was 3.66 µM (inactive); in the test on MCF7, 17.3 µM (inactive); in the test on SW-620 it was 1.73 µM (inactive); in the test with RXF 393, 17.7 µM (inactive).

With `CCCCCCCCCCCCCOCCOCCOCCCCC(O)CCCCCCCCCC1=C[C@H](C)OC1=O` (stereo partly specified), the GI50 in the test on SK-MEL-5 is 6.93 µM (inactive); with MDA-MB-231, 22.4 µM (inactive); in the test on NCI-H522, 0.0488 µM (active); with CAKI-1, 19.1 µM (inactive); with HCT-15, 19.1 µM; with M14, 27.2 µM (inactive). The GI50 with SK-MEL-28 is 11.4 µM (inactive); with OVCAR-8 it was 18.7 µM (inactive); with A549, 7.55 µM (inactive); in the test with HT-29, 15.6 µM (inactive); with OVCAR-4, 12.3 µM (inactive); in the test on PC-3, 13.8 µM (inactive). For the same compound, the GI50 with OVCAR-3 is 18.6 µM (inactive); with U-251 it was 14.1 µM (inactive); in the test with SN12C it was 21.4 µM (inactive); in the test with MCF7 it was 10.1 µM (inactive); with SF-295, 7.21 µM (inactive); in the test on SW-620, 16.4 µM (inactive). The GI50 in the test with RXF 393 was 20.1 µM (inactive).

As to `CCOC(=O)c1cc(C2CCN(c3ccccc3)C2=O)c(C(=O)/C=C(/C)O)[nH]1` (stereo unspecified), the GI50 in the test with SK-MEL-5 was 36.3 µM (inactive); in the test with MDA-MB-231 it was 81.5 µM (inactive); in the test with NCI-H522, 67.5 µM (inactive); with CAKI-1, 47.8 µM (inactive); in the test on HCT-15, 51.6 µM; with M14 it was > 100 µM (inactive). Moreover, the GI50 in the test on SK-MEL-28 is > 100 µM (inactive); in the test with OVCAR-8, > 100 µM (inactive); in the test with A549, 93.8 µM (inactive); in the test with HT-29, > 100 µM (inactive); in the test with OVCAR-4, 63.8 µM (inactive); in the test with PC-3 it was 88.3 µM (inactive). The GI50 is > 100 µM (inactive) in the test on OVCAR-3; > 100 µM (inactive) in the test on U-251; > 100 µM (inactive) with SN12C; 59.8 µM (inactive) with MCF7; 70.8 µM (inactive) in the test with SF-295; > 100 µM (inactive) in the test on SW-620. For the same compound, the GI50 with RXF 393 was 21.6 µM (inactive).

As for `C[n+]1c(-c2ccc(/C=N/NC(=O)C(=O)N/N=C/c3ccc(-c4cn5ccccc5[n+]4C)cc3)cc2)cn2ccccc21`, the GI50 with SK-MEL-5 is 91 µM (inactive); in the test with MDA-MB-231, > 100 µM (inactive); in the test with NCI-H522, > 100 µM (inactive); with CAKI-1 it was > 100 µM (inactive); with HCT-15 it was over 100 µM; in the test on M14, > 100 µM (inactive). Moreover, the GI50 with OVCAR-8 was > 100 µM (inactive); in the test with A549, > 100 µM (inactive); in the test with HT-29, > 100 µM (inactive); with OVCAR-4, > 100 µM (inactive); in the test on PC-3, > 100 µM (inactive); in the test on OVCAR-3, 45.9 µM (inactive). The GI50 in the test on U-251, with HOP-92, in the test on SN12C, in the test on MCF7, in the test on SW-620 and in the test with RXF 393 was > 100 µM (inactive) in each case.

Regarding `COc1ccc(/C=N/N2C(=O)c3c(N)c(C#N)c(-c4ccccc4)c(-c4ccccc4)c3C2=O)cc1`, the GI50 is > 100 µM (inactive) in the test on SK-MEL-5; > 100 µM (inactive) in the test with MDA-MB-231; > 100 µM (inactive) in the test on NCI-H522; > 100 µM (inactive) with CAKI-1; over 100 µM with HCT-15; > 100 µM (inactive) with M14. Also, the GI50 was > 100 µM (inactive) in the test with SK-MEL-28; 82.4 µM (inactive) in the test on OVCAR-8; > 100 µM (inactive) in the test on A549; 99.8 µM (inactive) in the test on OVCAR-4; > 100 µM (inactive) in the test on PC-3; > 100 µM (inactive) in the test on OVCAR-3. In addition, the GI50 is 98.6 µM (inactive) with U-251; 84.3 µM (inactive) in the test on HOP-92; > 100 µM (inactive) with SN12C; > 100 µM (inactive) in the test on MCF7; 70.8 µM (inactive) in the test with SF-295; > 100 µM (inactive) in the test with SW-620. Further, the GI50 in the test with RXF 393 is 72.8 µM (inactive).

Turning to `CNC(=O)NCCN1CC2CCC(CC2)C1`, the GI50 in the test on SK-MEL-5 is > 10 µM (inactive); with MDA-MB-231, > 10 µM (inactive); in the test on NCI-H522, > 10 µM (inactive); in the test with CAKI-1 it was > 10 µM (inactive); in the test on HCT-15, over 10 µM; in the test on M14, > 10 µM (inactive). For the same compound, the GI50 in the test with SK-MEL-28, in the test on OVCAR-8, in the test with A549, with HT-29, with OVCAR-4 and in the test on PC-3 was > 10 µM (inactive) each time. The GI50 in the test on OVCAR-3, in the test with U-251, in the test with SN12C, with MCF7, in the test with SF-295 and with SW-620 was > 10 µM (inactive) throughout. In the test with RXF 393, the GI50 was > 10 µM (inactive).
